Reference: patent US10336792B2, “Antimicrobial peptide dendrimers” (priority 2014, dated 2019)
≈ marks a conversion by molar mass, not a printed value. Positions of bridges follow the written chain, without caps; N, C: chain ends. Non-standard residues stand in square brackets, D forms with d. Residues, ends and D or L forms follow the SMILES beside them. Groups on a side chain read outwards from the residue. Chains are numbered I, II in the order given. *: point of attachment. X1 = CCCCCCCCCCCCCCCCCCCCCCCC(=O)*; Decanoyl = CCCCCCCCCC(=O)*; Dap = NC[C@H](N)C(=O)O; Hexanoyl = CCCCCC(=O)*

Assays:
Assay type in all cases: cell-based
[1] = test system: Escherichia coli (strain DH5α); details: DH5α
Procedure: (§1) Antimicrobial activity was assayed against Bacillus subtilis (strain BR151), Escherichia coli (strain DH5α) and Pseudomonas aeruginosa (strain PA01). Microdilution broth method was used to determine the minimal inhibitory concentration (MIC). A colony of bacteria was grown in LB-medium overnight at 37° C. The concentration was quantified by measuring absorbance at 600 nm and diluted to OD600=0.1 (1×10^8 CFU/mL). The samples were prepared as stock solutions of 1 mg mL^−1 in H2O and diluted serially by ⅔ in nutrient LB in a 96-well microtiterplate (Cornstar, polypropylene, untreated). The sample solutions (50 μL) were mixed with the diluted bacterial suspension with an OD600 nm of 0.001 (50 μL). […] The plates were incubated at 37° C. until satisfactory growth (18-24 h). For each test, two columns of the plate were kept for sterility control (SC, broth only) and growth control (GC, broth with bacterial inoculums, no antibiotics). 10 μL of a solution of MTT (0.1% in H2O) was added to each well. The minimal inhibitory concentration (MIC) was defined as the lowest concentration of the antimicrobial substance (peptide dendrimer) that inhibited visible growth of the tested bacteria (yellow) with the unaided eye. For microbiological study the linear peptide LysTyrLysLysAlaLeuLysLysLeuAlaLysLeuLeu (SEQ ID No. 1) was used as reference.
(§2) The AMPD library was tested for their antimicrobial activity against B. subtilis BR151, a Gram-positive bacterium and E. coli DH5α, another Gram-negative bacterium, to cover a broader spectrum of different bacteria. […] Therefore no explicit SAR can be established, but clearly the hydrophobic amino acids Ala and Tyr seem to have a significant influence in reducing activity.

[2] = test system: Bacillus subtilis (strain BR151); details: strain BR151
Procedure: as §1, §2

[3] = test system: Pseudomonas aeruginosa (strain PA01); assay: microbe, parasite or virus in culture; details: strain
Procedure, shortened: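 Broth microdilution MIC against P. aeruginosa PAO1 in LB: peptides serially diluted by ⅔, bacteria added at OD600 0.001 and incubated 18–24 h at 37 °C. MTT added; MIC is the lowest concentration preventing visible growth.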

| MIC E. coli DH5α [1] | MIC B. subtilis BR151 [2] | MIC P. aeruginosa PAO1 [3] | Compound |
| --- | --- | --- | --- |
| 5 µg/mL (≈ 0.94 µM) | 1 µg/mL (≈ 0.188 µM) | 2 µg/mL (≈ 0.376 µM) | CCCCCC(=O)N[C@@H](CCCCN)C(=O)N[C@@H](CC(C)C)C(=O)NCCCC[C@H](NC(=O)[C@H](CC(C)C)NC(=O)[C@H](CCCCN)NC(=O)CCCCC)C(=O)N[C@@H](CCCCN)C(=O)N[C@@H](CC(C)C)C(=O)NCCCC[C@H](NC(=O)[C@H](CC(C)C)NC(=O)[C@H](CCCCN)NC(=O)[C@H](CCCCNC(=O)[C@H](CC(C)C)NC(=O)[C@H](CCCCN)NC(=O)CCCCC)NC(=O)[C@H](CC(C)C)NC(=O)[C@H](CCCCN)NC(=O)CCCCC)C(=O)N[C@@H](CCCCN)C(=O)N[C@@H](CC(C)C)C(=O)NCCCC[C@H](NC(=O)[C@H](CC(C)C)NC(=O)[C@H](CCCCN)NC(=O)[C@H](CCCCNC(=O)[C@H](CC(C)C)NC(=O)[C@H](CCCCN)NC(=O)[C@H](CCCCNC(=O)[C@H](CC(C)C)NC(=O)[C@H](CCCCN)NC(=O)CCCCC)NC(=O)[C@H](CC(C)C)NC(=O)[C@H](CCCCN)NC(=O)CCCCC)NC(=O)[C@H](CC(C)C)NC(=O)[C@H](CCCCN)NC(=O)[C@H](CCCCNC(=O)[C@H](CC(C)C)NC(=O)[C@H](CCCCN)NC(=O)CCCCC)NC(=O)[C@H](CC(C)C)NC(=O)[C@H](CCCCN)NC(=O)CCCCC)C(=O)N[C@@H](CCCCN)C(=O)N[C@@H](CC(C)C)C(N)=O [MSt-288, (C6KL)8(KKL)4(KKL)2(KKL)] (I: Hexanoyl-KLK([Leu-Lys-Hexanoyl])KLKKLKKL-NH2 / II: Hexanoyl-KLK([Leu-Lys-Hexanoyl])KLKKL / III: Hexanoyl-KLK([Leu-Lys-Hexanoyl])KL / IV: Hexanoyl-KLK([Leu-Lys-Hexanoyl])KL; amide I:6-IV:C, I:9-II:C, II:6-III:C) |
| 4 µg/mL (≈ 0.651 µM) | 10 µg/mL (≈ 1.63 µM) | 3 µg/mL (≈ 0.489 µM) | CC(C)C[C@H](NC(=O)[C@H](CCCCN)NC(=O)[C@H](CCCCNC(=O)[C@H](CC(C)C)NC(=O)[C@H](CCCCN)NC(=O)[C@H](CCCCNC(=O)[C@H](CC(C)C)NC(=O)[C@H](CCCCN)NC(=O)CSC[C@H](NC(=O)[C@H](CC(C)C)NC(=O)[C@H](CCCCN)NC(=O)[C@H](CCCCNC(=O)[C@H](CC(C)C)NC(=O)[C@@H](N)CCCCN)NC(=O)[C@H](CC(C)C)NC(=O)[C@@H](N)CCCCN)C(N)=O)NC(=O)[C@H](CC(C)C)NC(=O)[C@H](CCCCN)NC(=O)CSC[C@H](NC(=O)[C@H](CC(C)C)NC(=O)[C@H](CCCCN)NC(=O)[C@H](CCCCNC(=O)[C@H](CC(C)C)NC(=O)[C@@H](N)CCCCN)NC(=O)[C@H](CC(C)C)NC(=O)[C@@H](N)CCCCN)C(N)=O)NC(=O)[C@H](CC(C)C)NC(=O)[C@H](CCCCN)NC(=O)[C@H](CCCCNC(=O)[C@H](CC(C)C)NC(=O)[C@H](CCCCN)NC(=O)CSC[C@H](NC(=O)[C@H](CC(C)C)NC(=O)[C@H](CCCCN)NC(=O)[C@H](CCCCNC(=O)[C@H](CC(C)C)NC(=O)[C@@H](N)CCCCN)NC(=O)[C@H](CC(C)C)NC(=O)[C@@H](N)CCCCN)C(N)=O)NC(=O)[C@H](CC(C)C)NC(=O)[C@H](CCCCN)NC(=O)CSC[C@H](NC(=O)[C@H](CC(C)C)NC(=O)[C@H](CCCCN)NC(=O)[C@H](CCCCNC(=O)[C@H](CC(C)C)NC(=O)[C@@H](N)CCCCN)NC(=O)[C@H](CC(C)C)NC(=O)[C@@H](N)CCCCN)C(N)=O)C(N)=O [CCS-20, (KL)8(KKLCxKL)4(KKL)2KKL] |
| 5 µg/mL (≈ 0.997 µM) | 16 µg/mL (≈ 3.19 µM) | 12 µg/mL (≈ 2.39 µM) | CCCCCCCCCCCCCCCCCCCCCCCC(=O)NCCCC[C@H](NC(=O)[C@H](CC(C)C)NC(=O)[C@H](CCCCN)NC(=O)[C@H](CCCCNC(=O)[C@H](CC(C)C)NC(=O)[C@H](CCCCN)NC(=O)[C@H](CCCCNC(=O)[C@H](CC(C)C)NC(=O)[C@H](CCCCN)NC(=O)[C@H](CCCCNC(=O)[C@H](CC(C)C)NC(=O)[C@@H](N)CCCCN)NC(=O)[C@H](CC(C)C)NC(=O)[C@@H](N)CCCCN)NC(=O)[C@H](CC(C)C)NC(=O)[C@H](CCCCN)NC(=O)[C@H](CCCCNC(=O)[C@H](CC(C)C)NC(=O)[C@@H](N)CCCCN)NC(=O)[C@H](CC(C)C)NC(=O)[C@@H](N)CCCCN)NC(=O)[C@H](CC(C)C)NC(=O)[C@H](CCCCN)NC(=O)[C@H](CCCCNC(=O)[C@H](CC(C)C)NC(=O)[C@H](CCCCN)NC(=O)[C@H](CCCCNC(=O)[C@H](CC(C)C)NC(=O)[C@@H](N)CCCCN)NC(=O)[C@H](CC(C)C)NC(=O)[C@@H](N)CCCCN)NC(=O)[C@H](CC(C)C)NC(=O)[C@H](CCCCN)NC(=O)[C@H](CCCCNC(=O)[C@H](CC(C)C)NC(=O)[C@@H](N)CCCCN)NC(=O)[C@H](CC(C)C)NC(=O)[C@@H](N)CCCCN)C(N)=O [MSt-285, (KL)8(KKL)4(KKL)2(KKLKC24)] (I: H-KLK([Leu-Lys])KLKKLKKLK(X1)-NH2 / II: H-KLK([Leu-Lys])KLKKL / III: H-KLK([Leu-Lys])KL / IV: H-KLK([Leu-Lys])KL; amide I:6-IV:C, I:9-II:C, II:6-III:C) |
| 17 µg/mL (≈ 7.87 µM) | 16 µg/mL (≈ 7.4 µM) | 2 µg/mL (≈ 0.926 µM) | CC(C)C[C@H](NC(=O)[C@H](CCCNC(=N)N)NC(=O)[C@H](CNC(=O)[C@H](CC(C)C)NC(=O)[C@H](CCCNC(=N)N)NC(=O)[C@H](CNC(=O)[C@H](CC(C)C)NC(=O)[C@@H](N)CCCNC(=N)N)NC(=O)[C@H](CC(C)C)NC(=O)[C@@H](N)CCCNC(=N)N)NC(=O)[C@H](CC(C)C)NC(=O)[C@H](CCCNC(=N)N)NC(=O)[C@H](CNC(=O)[C@H](CC(C)C)NC(=O)[C@@H](N)CCCNC(=N)N)NC(=O)[C@H](CC(C)C)NC(=O)[C@@H](N)CCCNC(=N)N)C(N)=O [MSt-139, (RL)4(BRL)2(BRL)] (I: H-RL[Dap]([Leu-Arg])RL[Dap]RL-NH2 / II: H-RL[Dap]([Leu-Arg])RL; amide I:6-II:C) |

| Compound | MIC E. coli DH5α [1] | MIC B. subtilis BR151 [2] | MIC P. aeruginosa PAO1 [3] |
| --- | --- | --- | --- |
| CCCCCCCCCC(=O)NCCCC[C@H](NC(=O)[C@H](CC(C)C)NC(=O)[C@H](CCCCN)NC(=O)[C@H](CCCCNC(=O)[C@H](CC(C)C)NC(=O)[C@H](CCCCN)NC(=O)[C@H](CCCCNC(=O)[C@H](CC(C)C)NC(=O)[C@@H](N)CCCCN)NC(=O)[C@H](CC(C)C)NC(=O)[C@@H](N)CCCCN)NC(=O)[C@H](CC(C)C)NC(=O)[C@H](CCCCN)NC(=O)[C@H](CCCCNC(=O)[C@H](CC(C)C)NC(=O)[C@@H](N)CCCCN)NC(=O)[C@H](CC(C)C)NC(=O)[C@@H](N)CCCCN)C(N)=O [MSt-262, (KL)4(KKL)2(KKLKC10)] (I: H-KLK([Leu-Lys])KLKKLK(Decanoyl)-NH2 / II: H-KLK([Leu-Lys])KL; amide I:6-II:C) | 1 µg/mL (≈ 0.421 µM) | 2 µg/mL (≈ 0.843 µM) | 1 µg/mL (≈ 0.421 µM) |
